According to patent US9790169B2, “IDO inhibitors” (BRISTOL-MYERS SQUIBB COMPANY, priority 2015, dated 2017):
pIC50: −log10 of the molar value.

target: human IDO1 (Homo sapiens, UniProt P14902); test: Assessment of human IDO-1 inhibitory activity in Hela cells (Interferon-gamma stimulated HeLa cells, Ehrlich reagent, absorbance 490 nm); type: cell-based; parameters: endogenous in cells; host or cells: HeLa cells stimulated with interferon-gamma; details: Hela Human IDO-1 cellular assay
Description: Exemplary compounds were tested for inhibition of IDO activity.
Assessment of Human IDO-1 Inhibitory Activity in Hela Cells
HeLa cells were seeded at 20,000 cells per 30 μL per well with RPMI/phenol red free media containing 10% FBS in a 384-well tissue culture plate (black with clear bottoms). 50 nL of compound was added to cells and incubated at 37° C. for one hour. 20 μL of the recombinant human Interferon-gamma (R&D System, Cat. #285-IF, at final concentration of 10 ng/ml) or recombinant murine Interferon-gamma (PEPROTECH® Inc., Cat. #315-05, final concentration of 5 ng/ml) was added to activate IDO signaling. The cells were incubated for 18 hours in 37° C. incubator with 5% CO2.
Compound treatment was stopped by adding 5 μl trichloroacetic acid to a final concentration of 3%. Subsequently, the cell plate was further incubated at 50° C. for 30 minute. An equal volume supernatant (20 μL) and 2% (w/v) Ehrlich reagent (4-dimethylaminobenzaldehyde) in glacial acetic acid were mixed in a new clear bottom 384-well plate. This plate was incubated at room temperature for 30 minutes. Absorbance at 490 nm was measured on Envision plate reader.
Compound IC50 values were calculated using counts from unstimulated (no INF-gamma treatment) wells as 100% inhibition. INF-gamma treatment without compound treatment as 0% inhibition.

Chain of human IDO1 (P14902 whole entry): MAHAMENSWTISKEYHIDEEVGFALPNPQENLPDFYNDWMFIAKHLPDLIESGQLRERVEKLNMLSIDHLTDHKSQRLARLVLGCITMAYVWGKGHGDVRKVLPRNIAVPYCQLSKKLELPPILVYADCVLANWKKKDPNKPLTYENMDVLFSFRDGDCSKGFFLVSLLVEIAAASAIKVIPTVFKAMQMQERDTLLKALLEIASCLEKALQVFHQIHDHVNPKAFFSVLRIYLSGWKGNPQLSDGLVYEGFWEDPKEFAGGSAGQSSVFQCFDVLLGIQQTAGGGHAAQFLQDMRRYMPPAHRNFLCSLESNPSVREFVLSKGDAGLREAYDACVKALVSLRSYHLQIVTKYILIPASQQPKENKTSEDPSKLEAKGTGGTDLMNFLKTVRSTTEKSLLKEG

Row | Structure (SMILES) | pIC50
1 | CCC(CC(=O)O)c1ccc(N2CCN(C(=O)OC(C)(C)C)CC2)c(Nc2ccc(C#N)cc2)c1 (single isomer, unassigned) [Example 674 Enantiomer 2, 3-(4-(4-(tert-Butoxycarbonyl)piperazin-1-yl)-3-((4-cyanophenyl)amino)phenyl)pentanoic acid] | < 7.30
2 | CCOc1ncc(Nc2cc(C(CC)(CC)CC(=O)O)ccc2N(CC)C2CCOCC2)cn1 [Example 29, 3-(3-((2-ethoxypyrimidin-5-yl)amino)-4-(ethyl(tetrahydro-2H-pyran-4-yl)amino)phenyl)-3-ethylpentanoic acid] | > 8.30
3 | COCCN(c1ccc(C(COC)CC(=O)O)cc1NC(=O)Nc1ccc(Cl)cc1F)C1CCOCC1 (single isomer, unassigned) [Example 262, 3-(3-(3-(4-chloro-2-fluorophenyl)ureido)-4-((2-methoxyethyl)(tetrahydro-2H-pyran-4-yl)amino)phenyl)-4-methoxybutanoic acid] | < 7.30
4 | CCN(c1cc(F)c([C@H](COC)CC(=O)O)cc1Nc1ccc(C#N)cc1)C1CCOCC1 (single isomer, unassigned) [Example 850, 3-(5-((4-Cyanophenyl)amino)-4-(ethyl(tetrahydro-2H-pyran-4-yl)amino)-2-fluorophenyl)-4-methoxybutanoic acid] | > 8.30
5 | CCC(CC(=O)O)c1ccc(N2CCC(C)CC2)c(Nc2ccc(C#N)cc2)c1 (single isomer, unassigned) [Example 41 Enantiomer 1, 3-(3-((4-Cyanophenyl)amino)-4-(4-methylpiperidin-1-yl)phenyl)pentanoic acid] | > 7.30
6 | CCN(c1ccc([C@@H](COC)CC(=O)O)cc1Nc1ccc(C#N)cc1)C1CCOCC1 (stereo in doubt) [compound 349, 3-(3-((4-Cyanophenyl)amino)-4-(ethyl(tetrahydro-2H-pyran-4-yl)amino)phenyl)-4-methoxybutanoic acid] | > 8.30
7 | CCN(c1ccc(C(C)CC(=O)O)cc1Nc1cnc(OCC2CC2)nc1)C1CCOCC1 (single isomer, unassigned) [Example 626, 3-(3-((2-(cyclopropylmethoxy)pyrimidin-5-yl)amino)-4-(ethyl(tetrahydro-2H-pyran-4-yl)amino)phenyl)butanoic acid] | > 7.30
8 | COCC(CC(=O)O)c1ccc(N2CCOC[C@@H]2C(C)C)c(Nc2ccc(C#N)cc2)c1 (single isomer, unassigned) [Example 933] | < 7.30
9 | COCC(CC(=O)O)c1ccc(N(C)C2CCOCC2)c(Nc2ccc(C#N)cc2)c1 (single isomer, unassigned) [Example 873, 3-(3-((4-Cyanophenyl)amino)-4-(methyl(tetrahydro-2H-pyran-4-yl)amino)phenyl)-4-methoxybutanoic acid] | > 7.30
10 | CCN(c1ccc(C(CC)(CC)CC(=O)O)cc1NC(=O)Nc1ccc(C#N)cc1)C1CCOCC1 [Example 31, 3-(3-(3-(4-cyanophenyl)ureido)-4-(ethyl(tetrahydro-2H-pyran-4-yl)amino)phenyl)-3-ethylpentanoic acid] | > 7.30
11 | CCN(c1ccc(C(COC)CC(=O)O)cc1Nc1ccc(Cl)cc1)C1CCS(=O)(=O)CC1 (single isomer, unassigned) [Example 174, 3-(3-((4-chlorophenyl)amino)-4-((1,1-dioxidotetrahydro-2H-thiopyran-4-yl)(ethyl)amino)phenyl)-4-methoxybutanoic acid] | > 7.30
12 | CCC(CC(=O)O)c1ccc(N(C)C2CCOCC2)c(Nc2cnc(OC)nc2)c1 (single isomer, unassigned) [Example 868, 3-(3-((2-methoxy-pyrimidin-5-yl)amino)-4-(methyl (tetrahydro-2H-pyran-4-yl)amino)phenyl) pentanoic acid] | > 7.30
13 | COCCN(c1ccc(C(C)(C)CC(=O)O)cc1Nc1ccc(C#N)cc1)C1CCOCC1 [Example 16, 3-(3-((4-cyanophenyl)amino)-4-((2-methoxyethyl)(tetrahydro-2H-pyran-4-yl)amino)phenyl)-3-methylbutanoic acid] | > 8.30
14 | CCOc1ncc(Nc2cc([C@H](CC)Cc3ncno3)ccc2N(CC)C2CCOCC2)cn1 [Example 1337, (R)-4-(1-(1,2,4-Oxadiazol-5-yl)butan-2-yl)-N2-(2-ethoxypyrimidin-5-yl)-N1-ethyl-N1-(tetrahydro-2H-pyran-4-yl)benzene-1,2-diamine] | > 7.30
15 | COCC(CC(=O)O)c1ccc(N2CCOC[C@@H]2C(C)C)c(Nc2ccc(Cl)cc2)c1 (single isomer, unassigned) [Example 934] | < 7.30
16 | CCc1ccc(Nc2cc(C(CC)CC(=O)O)ccc2N2CCOC[C@H]2C(C)C)cc1 (single isomer, unassigned) [Example 890] | > 7.30
17 | CCC(CC(=O)O)c1ccc(N(CC)C2CCOC2)c(NC(=O)Nc2ccc(Cl)cc2F)c1 (single isomer, unassigned) [948 D2] | > 7.30

Row | Structure (SMILES) | pIC50
18 | CCOc1ncc(Nc2cc(C(COC)CC(=O)O)ccc2N2CCOC[C@@H]2C(C)C)cn1 (single isomer, unassigned) [Example 931] | < 7.30
19 | CCOc1ccc(Nc2cc(C(C)CC(=O)O)ccc2N(CC)C2CCOCC2)nn1 (single isomer, unassigned) [Example 624, 3-(3-((6-ethoxypyridazin-3-yl)amino)-4-(ethyl (tetrahydro-2H-pyran-4-yl)amino)phenyl)butanoic acid] | < 7.30
20 | CCC1COCCN1c1ccc([C@@H](COC)CC(=O)O)cc1Nc1ccc(C#N)cc1 (single isomer, unassigned) [Example 1281] | < 7.30
21 | CCOc1ncc(Nc2cc(C(CC)CC(=O)O)ccc2N(C)C2CCOCC2)cn1 (single isomer, unassigned) [Example 869, 3-(3-((2-ethoxy-pyrimidin-5-yl)amino)-4-(methyl (tetrahydro-2H-pyran-4-yl)amino)phenyl) pentanoic acid] | > 7.30
22 | COCC(CC(=O)O)c1ccc(N(C)C2CCOCC2)c(NC(=O)Nc2ccc(Cl)cc2F)c1 (single isomer, unassigned) [Example 879, 3-(3-(3-(4-Chloro-2-fluorophenyl)ureido)-4-(methyl(tetrahydro-2H-pyran-4-yl)amino)phenyl)-4-methoxybutanoic acid] | < 7.30
23 | CCN(c1ccc([C@H](CC(=O)O)C(F)(F)F)cc1NC(=O)Nc1ccc(C)cc1)C1CCOCC1 (single isomer, unassigned) [Example 1269] | > 7.30
24 | CCN(c1ccc(C(CC)(CC)CC(=O)O)cc1Nc1cnc(OC)nc1)C1CCOCC1 [Example 28, 3-ethyl-3-(4-(ethyl(tetrahydro-2H-pyran-4-yl)amino)-3-((2-methoxypyrimidin-5-yl)amino)phenyl)pentanoic acid] | > 7.30
25 | CCCN(c1ccc(C(CC)CC(=O)O)cc1NC(=O)Nc1ccc(C)cc1)C1CCS(=O)(=O)CC1 (single isomer, unassigned) [Example 14 Enantiomer 1, 3-(4-((1,1-Dioxidotetrahydro-2h-thiopyran-4-yl)(propyl)amino)-3-(3-(p-tolyl)ureido)phenyl)pentanoic acid] | < 7.30
26 | CCN(c1ccc(C(COC)CC(=O)O)cc1Nc1ccc(F)cc1)C1CCS(=O)(=O)CC1 (single isomer, unassigned) [Example 172, 3-(4-((1,1-dioxidotetrahydro-2H-thiopyran-4-yl)(ethyl)amino)-3-((4-fluorophenyl)amino)phenyl)-4-methoxybutanoic acid] | > 7.30
27 | COCC(CC(=O)O)c1ccc(N2CCC(c3ccccc3)CC2)c(Nc2ccc(C#N)cc2)c1 (single isomer, unassigned) [Example 1350 E1, 3-(3-((4-Cyanophenyl)amino)-4-(4-phenylpiperidin-1-yl)phenyl)-4-methoxybutanoic acid] | > 8.30
28 | CCC(CC(=O)O)c1ccc(N2CCOC(C)(C)C2)c(NC(=O)Nc2ccc(Cl)cc2F)c1 (single isomer, unassigned) [Example 1322 E1, 3-(3-(3-(4-Chloro-2-fluorophenyl)ureido)-4-(2,2-dimethylmorpholino)phenyl)pentanoic acid] | < 7.30
29 | COCC(CC(=O)O)c1ccc(N2CCOC(C)(C)C2)c(Nc2ccc(Cl)cc2)c1 (single isomer, unassigned) [Example 1315 E1, 3-(3-((4-Chlorophenyl)amino)-4-(2,2-dimethylmorpholino)phenyl)-4-methoxybutanoic acid] | < 7.30
30 | CCCN(c1ccc([C@H](CC)CC(=O)O)cc1Nc1ccc(OC)nc1)C1CCOCC1 (single isomer, unassigned) [Example 553] | > 8.30
31 | CCN(c1ccc([C@H](CC(=O)O)C(F)(F)F)cc1Nc1cnc(OC)nc1)C1CCOCC1 [Example 599, (S)-3-(4-(ethyl(tetrahydro-2H-pyran-4-yl)amino)-3-((2-methoxypyrimidin-5-yl)amino)phenyl)-4,4,4-trifluorobutanoic acid] | > 7.30
32 | COCCN(c1ccc(C(C)(C)CC(=O)O)cc1NC(=O)Nc1ccc(C)cc1)C1CCOCC1 [Example 18, 3-(4-((2-Methoxyethyl)(tetrahydro-2H-pyran-4-yl)amino)-3-(3-(p-tolyl)ureido)phenyl)-3-methylbutanoic acid] | < 7.30
33 | CCC(CC(=O)O)c1ccc(N2CCOCC2)c(NC(=O)Nc2ccc(C)cc2)c1 (single isomer, unassigned) [Example 8 Enantiomer 2, 3-(4-Morpholino-3-(3-(p-tolyl)ureido)phenyl)pentanoic acid] | > 7.30
